The values below are quoted from earlier work in patent US20060269582A1, “Arthropod repellent comprising extracts and/or parts of the plant vitex agnus-castus” (Alpha-Biocare GmbH, priority 2002, published 2006).

In data set [1] the test system is ticks and mites. To be noted: state of the art.
Data set [2] has as its system ticks. To be noted: state of the art.

Each structure is given as a SMILES string.

In the case of `CC1=C(C=O)C(CC=O)CC1` (stereo not shown) [2-(2-formyl-3-methyl-cyclopent-2-enyl)acetaldehyde], the “efficiency / activity against ticks and mites” value in data set [1] is recorded as “low or even not there”.
As for `CCN(CC)C(=O)c1cccc(C)c1` [DEET, N,N-diethyl-m-toluamide], in data set [1], the “efficiency / activity against ticks and mites” value is reported as “low efficiency”.
Turning to `CCC(C)OC(=O)N1CCCCC1CCO` (stereo not shown) [Bayrepel], in data set [2], the activity against ticks entry is “poor” and the “duration of protection against ticks” value is recorded as “about two”.
